Common to all, as to assay type: functional, cell-based
Assay [1] can be described thus: Anticancer activity against human […] cells by HTS assay.
Assay [2] can be described thus: Anticancer activity against human 292G cells by HTS assay.
A short description of assay [3]: Anticancer activity against human M4E cells by HTS assay.
The nature of assay [4]: Anticancer activity against human H1299 cells by HTS assay. Particulars: NCI-H1299.
The subject of a further assay is NCI-H1792. Description: Anticancer activity against human NCI-H1792 cells by HTS assay.
Assay [5] in a line: Anticancer activity against human LOXIMVI cells by HTS assay. Particulars: LOX IMVI.
The subject of the next assay is A549. Description: Anticancer activity against human A549 cells by HTS assay.
The subject of the next assay is NCI-H522. Put plainly: Anticancer activity against human NCI-H522 cells by HTS assay.
The next assay relates to HOP-62. Description: Anticancer activity against human HOP62 cells by HTS assay.
A further assay relates to HeLa. Description: Anticancer activity against human HeLa cells by HTS assay.
Assay [6] can be described thus: Anticancer activity against human SKBR cells by HTS assay.
Assay [7] in a line: Anticancer activity against human Calu1 cells by HTS assay. Particulars: Calu-1.
Assay [8] can be described thus: Anticancer activity against human H460 cells by HTS assay. Particulars: NCI-H460.
For another assay, the system named is NCI-H157. Put plainly: Anticancer activity against human NCI-H157 cells by HTS assay.
A further assay has as its system M14. Description: Anticancer activity against human M14 cells by HTS assay.
Assay [9] in a line: Anticancer activity against human NCI-H1944 cells by HTS assay.

The structures appear in SMILES notation.

Regarding `COc1cc(O)c2c(=O)c(OC)c(-c3ccc(O)c(O)c3)oc2c1`, the half-inhibitory concentration (IC50) in assay [1] was above 50 µM; in assay [2], 24 µM; in assay [3], 21.3 µM; in [4] it was 15.6 µM; in the assay with NCI-H1792 it was 19.7 µM; in assay [5], 24.1 µM. For the same compound, the half-inhibitory concentration (IC50) in the assay with A549 was 5.4 µM; in the assay with NCI-H522, above 50 µM; in the assay on HOP-62, 13.2 µM; with HeLa, 11.1 µM; in [6], 5.28 µM; in assay [7] it was 39.6 µM. For the same compound, the IC50 was 7.02 µM in [8], 13 µM in the assay on NCI-H157, 21.7 µM in the assay on M14 and 0.46 µM in assay [9].

Take `CCCCOc1cc(O)c2c(=O)c(O)c(-c3ccc(OCCCC)c(O)c3)oc2c1`: the concentration for half-maximal inhibition (IC50) came to 15.9 µM in assay [1]; 17.7 µM in assay [2]; 6.29 µM in assay [3]; 4.54 µM in assay [4]; 3.09 µM in the assay with NCI-H1792; 2.36 µM in assay [5]. For the same compound, the IC50 in the assay with A549 was determined as 2.06 µM; in the assay with NCI-H522 it was 35.6 µM; in the assay with HOP-62, 4.43 µM; with HeLa it was 0.87 µM; in assay [6], 4.39 µM; in assay [7] it was 6.21 µM. Moreover, the half-maximal inhibitory concentration (IC50) in [8] stood at 3.16 µM; in the assay with NCI-H157 it was 0.39 µM; in the assay on M14 it was 9.35 µM; in assay [9] it was 0.56 µM.

`CCCOc1cc(O)c2c(=O)c(OCCC)c(-c3ccc(OCCC)c(O)c3)oc2c1`: the IC50 was above 50 µM in assay [1]; above 50 µM in [2]; 48.2 µM in assay [3]; 22.8 µM in assay [4]; above 50 µM with NCI-H1792; above 50 µM in [5]. In addition, the 50% inhibitory concentration (IC50) in the assay on A549 is 18.6 µM; in the assay on NCI-H522 it was above 50 µM; in the assay on HOP-62, 36 µM; in the assay on HeLa, 12.9 µM; in assay [6], 12 µM; in assay [7], above 50 µM. Also, the concentration for half-maximal inhibition (IC50) is 28.8 µM in assay [8], above 50 µM with NCI-H157, 34 µM in the assay on M14 and 4.75 µM in assay [9].

Turning to `CCOc1cc(O)c2c(=O)c(OCC)c(-c3ccc(OCC)c(OCC)c3)oc2c1`, the IC50 in [1] is above 50 µM; in assay [2], above 50 µM; in assay [3], 21.4 µM; in assay [4] it was 24.9 µM; with NCI-H1792, above 50 µM; in [5] it was 19.4 µM. The IC50 is 47.6 µM in the assay with A549; above 50 µM in the assay with NCI-H522; 44 µM in the assay on HOP-62; above 50 µM in the assay with HeLa; above 50 µM in [6]; above 50 µM in [7]. Besides, the IC50 is 22.1 µM in [8], above 50 µM with NCI-H157, above 50 µM in the assay on M14 and above 50 µM in assay [9].

In the case of `CCCOc1cc(O)c2c(=O)c(OCCC)c(-c3ccc(O)c(O)c3)oc2c1`, the half-inhibitory concentration (IC50) in assay [1] is above 50 µM; in assay [2] it was above 50 µM; in [3] it was above 50 µM; in [4], above 50 µM; with NCI-H1792, 30.6 µM; in [5], above 50 µM. Further, the IC50 is 26.2 µM in the assay with A549; above 50 µM in the assay on NCI-H522; 47.2 µM with HOP-62; 47 µM in the assay with HeLa; 34.5 µM in assay [6]; 31.9 µM in assay [7]. Moreover, the IC50 in assay [8] is 31.1 µM; in the assay on NCI-H157, 40.9 µM; with M14, above 50 µM; in assay [9] it was above 50 µM.

On to `CCOc1ccc(-c2oc3cc(O)cc(O)c3c(=O)c2O)cc1O`, for which the concentration for half-maximal inhibition (IC50) in [1] worked out at 2.85 µM; in assay [2] it was 4.11 µM; in assay [3], 6.18 µM; in [4], 1.77 µM; in the assay on NCI-H1792 it was 1 µM; in assay [5], 1.14 µM. Also, the IC50 in the assay on A549 amounted to 1.24 µM; with NCI-H522, 22.1 µM; with HOP-62, 4.45 µM; in the assay with HeLa, 1.2 µM; in assay [6], 3.19 µM; in assay [7], 1.5 µM. Further, the IC50 in assay [8] was 1.03 µM; with NCI-H157, 0.67 µM; in the assay on M14, 0.94 µM; in assay [9] it was 1.78 µM.

With `O=c1c(O)c(-c2ccc(O)c(O)c2)oc2cc(O)cc(O)c12` [QUERCETIN], the concentration for half-maximal inhibition (IC50) in [1] is 16.9 µM; in [2], above 50 µM; in [3], 21.7 µM; in [4], 13.6 µM; in the assay on NCI-H1792, 3.85 µM; in assay [5], 4.65 µM. In addition, the IC50 in the assay with A549 amounted to 6.2 µM; in the assay with NCI-H522 it was 5.77 µM; in the assay with HOP-62, 7.52 µM; with HeLa it was 3.56 µM; in assay [6] it was 16.7 µM; in [7] it was 23.6 µM. Moreover, the IC50 in assay [8] worked out at 9.62 µM; with NCI-H157, 6 µM; in the assay on M14, 12.8 µM; in assay [9], 10.2 µM.

As to `COc1cc(O)c2c(=O)c(OC)c(-c3ccc(OC)c(OC)c3)oc2c1` [RETUSIN], the 50% inhibitory concentration (IC50) in assay [1] is above 50 µM; in assay [2], above 50 µM; in assay [3], above 50 µM; in assay [4], 10.5 µM; in the assay with NCI-H1792, above 50 µM; in assay [5] it was 0.39 µM. Also, the 50% inhibitory concentration (IC50) was above 50 µM in the assay on A549; above 50 µM with NCI-H522; above 50 µM in the assay with HOP-62; 46.4 µM in the assay on HeLa; above 50 µM in assay [6]; 6.53 µM in [7]. The IC50 was above 50 µM in assay [8], above 50 µM in the assay with NCI-H157, 0.38 µM with M14 and above 50 µM in assay [9].

Turning to `CCCCOc1ccc(-c2oc3cc(O)cc(O)c3c(=O)c2O)cc1O`, the half-maximal inhibitory concentration (IC50) in assay [1] stood at 18.2 µM; in [2] it was 9.89 µM; in [3], 17.1 µM; in [4], 16 µM; in the assay on NCI-H1792 it was 10.5 µM; in assay [5], 28.8 µM. Moreover, the half-maximal inhibitory concentration (IC50) was 5.44 µM in the assay on A549; 17.7 µM in the assay on NCI-H522; 12.4 µM with HOP-62; 9.48 µM in the assay with HeLa; 6.72 µM in [6]; 25.3 µM in assay [7]. In addition, the IC50 in assay [8] was found to be 6.84 µM; in the assay on NCI-H157 it was 6.1 µM; in the assay on M14 it was 19.4 µM; in assay [9] it was 5.85 µM.

As to `CCCOc1ccc(-c2oc3cc(O)cc(O)c3c(=O)c2O)cc1O`, the IC50 in assay [1] is 31.1 µM; in assay [2] it was 28.5 µM; in [3] it was 27.4 µM; in assay [4], 46.5 µM; in the assay on NCI-H1792, 13.3 µM; in assay [5] it was above 50 µM. In addition, the IC50 in the assay on A549 was 13.9 µM; with NCI-H522 it was 49.5 µM; in the assay with HOP-62, 21.9 µM; in the assay with HeLa, 21.6 µM; in assay [6] it was 18 µM; in assay [7] it was 26.5 µM. Moreover, the half-maximal inhibitory concentration (IC50) in assay [8] amounted to 12.2 µM; in the assay on NCI-H157, 10.2 µM; in the assay with M14, 25.4 µM; in [9] it was 21.4 µM.

On to `COc1cc(O)c2c(=O)c(O)c(-c3ccc(OC)c(O)c3)oc2c1` [OMBUINE], for which the IC50 in assay [1] is above 50 µM; in assay [2], 40.7 µM; in assay [3] it was 30.7 µM; in assay [4], 34.8 µM; in the assay on NCI-H1792, 3.36 µM; in assay [5], above 50 µM. Also, the IC50 is 3.07 µM with A549; 17.4 µM with NCI-H522; 12.1 µM in the assay with HOP-62; 1.49 µM with HeLa; 8.3 µM in assay [6]; above 50 µM in assay [7]. Further, the 50% inhibitory concentration (IC50) in assay [8] was determined as 2.75 µM; in the assay with NCI-H157, 3.45 µM; in the assay with M14, 4.29 µM; in assay [9] it was 2.86 µM.

One may read the IC50 as the concentration that gives 50% inhibition. A higher IC50 goes with weaker potency.

(Values after ChEMBL document CHEMBL3352654, “Synthesis, biological evaluation and SAR analysis of O-alkylated analogs of quercetin for anticancer” (Bioorg Med Chem Lett, 2014).)
